Results from ChEMBL document CHEMBL1135754, “Arylsulfonamidothiazoles as a new class of potential antidiabetic drugs. Discovery of potent and selective inhibitors of the 11beta-hydroxysteroid dehydrogenase type 1” (J Med Chem, 2002).
Active and inactive are the calls of the source. The rule behind the calls is not given here.

Columns and labels:
[1] = target: T1, 11-beta-hydroxysteroid dehydrogenase 1 (Mus musculus, UniProt P50172); experiment: In vitro inhibitory activity against mouse 11 beta hydroxysteroid dehydrogenase type 1 using scintillation proximity assay (SPA)
[2] = target: 11-beta-hydroxysteroid dehydrogenase type 2 (Homo sapiens, UniProt P80365); experiment: Ability to convert [3H]cortisol to the tritium labeled cortisone in the presence of human 11 beta hydroxysteroid dehydrogenase type 2
[3] = target: 11-beta-hydroxysteroid dehydrogenase type 2 (Mus musculus) (UniProt P51661); experiment: Inhibitory activity against mouse 11 beta hydroxysteroid dehydrogenase type 2 at a concentration of 0.2 mM; NI means no inhibition
[4] = target: T1, 11-beta-hydroxysteroid dehydrogenase 1; experiment: In vitro inhibitory activity against mouse 11 beta hydroxysteroid dehydrogenase type 1 using scintillation proximity assay (SPA).

11-beta-hydroxysteroid dehydrogenase type 2, sequence (P80365 whole entry, looked up): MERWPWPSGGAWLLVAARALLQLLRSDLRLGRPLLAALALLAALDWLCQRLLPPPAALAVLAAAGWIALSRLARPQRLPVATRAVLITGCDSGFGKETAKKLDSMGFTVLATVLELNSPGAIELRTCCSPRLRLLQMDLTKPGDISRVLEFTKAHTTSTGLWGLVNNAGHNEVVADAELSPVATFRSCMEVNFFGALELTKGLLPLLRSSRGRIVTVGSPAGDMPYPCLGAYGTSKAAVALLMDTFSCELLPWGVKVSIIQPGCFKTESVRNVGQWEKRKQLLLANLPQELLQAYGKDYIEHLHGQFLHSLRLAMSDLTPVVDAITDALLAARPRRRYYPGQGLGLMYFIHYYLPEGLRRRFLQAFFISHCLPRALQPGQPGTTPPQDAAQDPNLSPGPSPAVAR
11-beta-hydroxysteroid dehydrogenase type 2 (Mus musculus), sequence (P51661 whole entry, looked up): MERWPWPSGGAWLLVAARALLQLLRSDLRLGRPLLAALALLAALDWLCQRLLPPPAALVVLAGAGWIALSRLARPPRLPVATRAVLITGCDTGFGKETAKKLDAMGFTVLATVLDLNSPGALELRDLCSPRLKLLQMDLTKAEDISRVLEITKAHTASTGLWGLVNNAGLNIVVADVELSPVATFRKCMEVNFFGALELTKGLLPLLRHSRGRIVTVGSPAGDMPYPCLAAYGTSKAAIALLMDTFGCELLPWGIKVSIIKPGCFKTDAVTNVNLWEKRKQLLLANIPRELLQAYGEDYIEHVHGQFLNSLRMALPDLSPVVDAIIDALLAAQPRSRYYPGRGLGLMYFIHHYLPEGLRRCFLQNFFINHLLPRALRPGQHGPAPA

SMILES | IC50 [1] [nM] | IC50 [2] [nM] | NI [3] | IC50 [4] [nM]
Cc1c(Cl)cccc1S(=O)(=O)Nc1nc(CC(=O)N2CCN(C)CC2)cs1 | […] | > 10000 | inactive | 
CCN(CC)C(=O)Cc1csc(NS(=O)(=O)c2cccc(Cl)c2C)n1 |  | > 10000 |  | […]
